Assay results: patent publication US5580953A, “Amylin antagonist peptides and uses therefor” (Amylin Pharmaceuticals, Inc., priority 1991, dated 1996)
No end group written: not given here.

Experiments:
[1] = system: insulin resistance caused by administered amylin; test: infusion into rats, reversal of amylin-induced insulin resistance; assay type: in vivo; details: infusions into rats
Description: A number of amylin antagonists have been characterized using these biological assays. The N-terminally deleted peptides ^8-37 Peptide A, ^8-37 Peptide B and ^8-32 Peptide C, were all found to compete with amylin in the receptor binding assay. […] ID. NO. 195]; ^9-37 Peptide B [SEQ. ID. NO. 27]; ^11-37 Peptide B [SEQ. ID. NO. 29]; ^18-37 Peptide B [SEQ. ID. NO. 36]; ^26 Asp^27 Val^29 Ala^8-32 Peptide C [SEQ. ID. NO. 196]; ^30 Asn^32 Tyr^8-32 Peptide C [SEQ. ID. NO. 197]; Ac-^9-32Peptide C [SEQ. ID. NO. 48]; Ac-^30 Asn^32 Tyr^9-32 Peptide C [SEQ. ID. NO. 198]; ^9-23 Peptide C^29-37 Peptide A [SEQ. ID. NO. 199]; Ac-^9-23 Peptide C^29-37 Peptide A; Adm-^9-23 Peptide C^29-37 Peptide A; Ac-^11 Arg^15 Leu^18 Arg^30 Asn^32 Tyr^9-32 Peptide C [SEQ. ID. NO. 200]; Ac-^11 Arg^18 Arg^30 Asn^32 Tyr^9-32 Peptide C [SEQ. ID. NO. 201]; Ac-^18 Arg^30 Asn^32 Tyr^9-32 Peptide C [SEQ. ID. NO. 202]. Infusions of ^8-37 Peptide B [SEQ. ID. NO. 26], ^8-32 Peptide C [SEQ. ID. NO. 47], and Ac-^11 Arg ^18 Arg^30 […] Tyr^9-32 Peptide C [SEQ. ID. NO.

[2] = system: insulin-stimulated glycogen synthesis in soleus muscle; test: rat soleus muscle assay; assay type: cell-based; details: for amylin agonist activity as measured by the soleus muscle assay: inhibition of insulin-stimulated glycogen synthesis; for amylin antagonist activity in the soleus muscle assay: resumption of insulin-stimulated glycogen synthesis in the presence of 100 nM rat amylin
Description: Several assays have been developed to measure amylin activity and to evaluate new compounds. A receptor binding assay as described herein may be used to screen for or to identify compounds which bind to amylin receptors and which may, therefore, be candidate amylin agonists and antagonists. The rat soleus muscle assay may be used as a secondary procedure to screen for or to evaluate and differentiate between amylin agonists and amylin antagonists. In the soleus muscle assay, amylin and amylin agonists inhibit insulin-stimulated glycogenesis. Amylin antagonists counteract this amylin inhibition which results in the recovery of insulin-stimulated glycogenesis.
Assays of biological activity of amylin preparations in the soleus muscle are performed using previously described methods (Leighton, B. and Cooper, G. J. S. (1988) Nature 335: 632-635; Cooper, G. J. S., Leighton, B., Dimitriadis, G. D., Parry-Billings, M., Kowalchuk, J. M., Howland, K., Rothbard, J. B., Willis, A. C. and Reid, K. B. M. (1988) Proc. Natl. Acad. Sci. USA 85: 7763-7766.) In summary, amylin agonist activity is assessed by measuring the inhibition of insulin-stimulated glycogen synthesis in soleus muscle in response to an amylin agonist. Amylin antagonist activity is assessed by measuring the resumption of insulin-stimulated glycogen synthesis in the presence of 100 nM rat amylin and an amylin antagonist. Concentrations of peptide dissolved in carrier-free buffers are determined by quantitative amino acid analysis, as described therein. The ability of compounds to act as antagonists in this assay is determined by measuring IC50 values. Standard errors are determined by fitting of sigmoidal dose response curves using a four parameter logistic equation (De Lean, A., Munson, P. J., Guardabasso, V. and Rodbard, D. (1988) ALLFIT, Version 2.7, National Institute of Child Health and Human Development, N.I.H. Bethesda, Md., 1 diskette).

Substance	reversal of insulin resistance caused by administered amylin [1]	amylin agonist activity as measured by the soleus muscle assay [2]	amylin antagonist activity in the soleus muscle assay [2]
VLGKLSQELHKLQTYPRTNTGSGTP-NH2 [^8-32 Peptide C]	reverse the insulin resistance caused by administered amylin	negligible agonist activity	act as amylin antagonists
^8-37 Peptide B (VTHRLAGLLSRSGGVVKNNFVPTNVGSKAF) [ID; NO; 26]	reverse the insulin resistance caused by administered amylin	negligible agonist activity	act as amylin antagonists
